# Experimental data as given in ChEMBL document CHEMBL1201862, “PubChem BioAssay data set” (2004).
#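 A five-concentration, 48-hour dose response in 96-well plates underlies each endpoint, interpolated linearly between surrounding concentrations. At the GI50, growth is halved.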 The source made the active and inactive calls. No stated cut-off is given here; in the data, active = GI50 up to about 1.1 µM and inactive = higher.
# Columns and labels:
# Assay in all cases: NCI anticancer screen, dose series, 48 h
# SW-620 = test system: SW-620
# HCT-15 = test system: HCT-15
# HOP-62 = test system: HOP-62
# 786-0 = test system: 786-0
# UACC-257 = test system: UACC-257
# Malme-3M = test system: Malme-3M
# NCI-H522 = test system: NCI-H522
# SNB-19 = test system: SNB-19
# OVCAR-4 = test system: OVCAR-4
# SF-295 = test system: SF-295
# RXF 393 = test system: RXF 393
# RPMI-8226 = test system: RPMI-8226
# SR = test system: SR
# CCRF-CEM = test system: CCRF-CEM
# HT-29 = test system: HT-29
# SF-539 = test system: SF-539
# NCI/ADR-RES = test system: NCI/ADR-RES
# MCF7 = test system: MCF7
# BT-549 = test system: BT-549
# T47D = test system: T47D
SMILES,GI50 (SW-620),GI50 (HCT-15),GI50 (HOP-62),GI50 (786-0),GI50 (UACC-257),GI50 (Malme-3M),GI50 (NCI-H522),GI50 (SNB-19),GI50 (OVCAR-4),GI50 (SF-295),GI50 (RXF 393),GI50 (RPMI-8226),GI50 (SR),GI50 (CCRF-CEM),GI50 (HT-29),GI50 (SF-539),GI50 (NCI/ADR-RES),GI50 (MCF7),GI50 (BT-549),GI50 (T47D)
N[C@H]1C2C3CC4C5CC(C42)C1(c1ccccc1)C53 (stereo partly drawn),> 100 µM (inactive),> 100 µM,> 100 µM (inactive),> 100 µM (inactive),> 10 µM (inactive),> 100 µM (inactive),> 100 µM (inactive),> 100 µM (inactive),> 100 µM (inactive),> 100 µM (inactive),45.1 µM (inactive),> 100 µM (inactive),> 100 µM (inactive),> 100 µM (inactive),62.5 µM (inactive),> 100 µM (inactive),–,–,–,–
CC(CO)CCC(O)C(C)(O)C1CCC2(O)C3=CC(=O)C4CC(O)C(O)CC4(C)C3CCC12C (stereo not drawn),> 100 µM (inactive),> 100 µM,> 100 µM (inactive),> 100 µM (inactive),> 100 µM (inactive),> 100 µM (inactive),> 100 µM (inactive),> 100 µM (inactive),> 100 µM (inactive),> 100 µM (inactive),> 100 µM (inactive),> 100 µM (inactive),> 100 µM (inactive),81.3 µM (inactive),> 100 µM (inactive),> 100 µM (inactive),> 100 µM (inactive),> 100 µM (inactive),> 100 µM (inactive),–
CN1C(=O)C(O)CC1c1ccccc1C(F)(F)F (stereo not drawn),> 100 µM (inactive),> 100 µM,> 100 µM (inactive),> 100 µM (inactive),> 100 µM (inactive),> 100 µM (inactive),> 100 µM (inactive),> 100 µM (inactive),> 100 µM (inactive),> 100 µM (inactive),> 100 µM (inactive),> 100 µM (inactive),> 10 µM (inactive),> 100 µM (inactive),> 100 µM (inactive),> 100 µM (inactive),> 100 µM (inactive),> 100 µM (inactive),> 100 µM (inactive),–
BrC(=C(c1ccc(OC2CCCCO2)cc1)c1ccc(OC2CCCCO2)cc1)c1ccccc1 (stereo not drawn),> 100 µM (inactive),> 100 µM,> 100 µM (inactive),> 100 µM (inactive),> 100 µM (inactive),> 100 µM (inactive),–,> 100 µM (inactive),> 100 µM (inactive),> 100 µM (inactive),> 100 µM (inactive),> 100 µM (inactive),> 100 µM (inactive),> 100 µM (inactive),> 100 µM (inactive),> 100 µM (inactive),> 100 µM (inactive),> 100 µM (inactive),–,> 100 µM (inactive)
CNc1nnc(CNc2ccc(-c3nnc(NC)n3N)cc2)n1N,> 100 µM (inactive),> 100 µM,> 100 µM (inactive),> 100 µM (inactive),> 100 µM (inactive),–,–,> 100 µM (inactive),> 100 µM (inactive),> 100 µM (inactive),> 100 µM (inactive),–,–,> 100 µM (inactive),> 100 µM (inactive),> 100 µM (inactive),> 100 µM (inactive),> 100 µM (inactive),12.4 µM (inactive),–
CC(C)(C)OC(=O)[C@H]1CCC(=S)N1Cc1ccccc1,> 100 µM (inactive),> 100 µM,–,> 100 µM (inactive),> 100 µM (inactive),> 100 µM (inactive),> 100 µM (inactive),> 100 µM (inactive),> 100 µM (inactive),> 100 µM (inactive),> 100 µM (inactive),> 100 µM (inactive),> 100 µM (inactive),> 100 µM (inactive),–,> 100 µM (inactive),> 100 µM (inactive),> 100 µM (inactive),–,–
Cc1nc2sccn2c1C(=O)OCCOCCOCCOCCOC(=O)c1c(C)nc2sccn12,> 100 µM (inactive),> 100 µM,> 100 µM (inactive),> 100 µM (inactive),16.5 µM (inactive),> 100 µM (inactive),48.8 µM (inactive),> 100 µM (inactive),71.8 µM (inactive),63.4 µM (inactive),> 100 µM (inactive),52.7 µM (inactive),45.9 µM (inactive),–,> 100 µM (inactive),77.4 µM (inactive),27.9 µM (inactive),61.5 µM (inactive),34.6 µM (inactive),–
CCOC(=O)c1c(N2CCCC2)nsc1Nc1ccccc1,> 100 µM (inactive),> 100 µM,–,> 100 µM (inactive),> 100 µM (inactive),> 100 µM (inactive),–,> 100 µM (inactive),> 100 µM (inactive),> 100 µM (inactive),> 100 µM (inactive),> 100 µM (inactive),> 100 µM (inactive),> 100 µM (inactive),> 100 µM (inactive),> 100 µM (inactive),> 100 µM (inactive),–,–,> 100 µM (inactive)
COc1ccc(C(=O)N/N=C/c2c(C)n(C)n(-c3ccccc3)c2=O)cc1,> 100 µM (inactive),> 100 µM,> 100 µM (inactive),> 100 µM (inactive),> 100 µM (inactive),> 100 µM (inactive),> 100 µM (inactive),> 100 µM (inactive),> 100 µM (inactive),> 100 µM (inactive),> 100 µM (inactive),> 100 µM (inactive),> 100 µM (inactive),> 100 µM (inactive),> 100 µM (inactive),> 100 µM (inactive),–,–,–,–
CCC(C)c1c(Cl)nc(Cl)nc1Cl (stereo not drawn),3.71 µM (inactive),5.13 µM,4.72 µM (inactive),10.9 µM (inactive),> 10 µM (inactive),5.75 µM (inactive),0.582 µM (active),16 µM (inactive),16.9 µM (inactive),24 µM (inactive),8.02 µM (inactive),11 µM (inactive),1.25 µM (inactive),0.1 µM (active),6.01 µM (inactive),23.4 µM (inactive),24.2 µM (inactive),4.45 µM (inactive),1.75 µM (inactive),–
C/N=N/N(C)C(=O)NC,> 100 µM (inactive),> 100 µM,> 100 µM (inactive),> 100 µM (inactive),–,> 100 µM (inactive),> 100 µM (inactive),> 100 µM (inactive),> 100 µM (inactive),> 100 µM (inactive),> 100 µM (inactive),> 100 µM (inactive),> 100 µM (inactive),> 100 µM (inactive),> 100 µM (inactive),> 100 µM (inactive),–,–,–,–
CC1(C)C2CC(c3ccncc3)ON2C(C)(C)N1O (stereo not drawn),> 100 µM (inactive),> 100 µM,> 100 µM (inactive),> 100 µM (inactive),> 100 µM (inactive),> 100 µM (inactive),–,> 100 µM (inactive),> 100 µM (inactive),> 100 µM (inactive),> 100 µM (inactive),> 100 µM (inactive),> 100 µM (inactive),> 100 µM (inactive),> 100 µM (inactive),> 100 µM (inactive),> 100 µM (inactive),> 100 µM (inactive),–,> 100 µM (inactive)
O=C1CN(C(=O)c2ccccc2)Cc2[nH]c3ccccc3c21,> 100 µM (inactive),> 100 µM,> 100 µM (inactive),> 100 µM (inactive),> 100 µM (inactive),> 100 µM (inactive),> 100 µM (inactive),> 100 µM (inactive),> 100 µM (inactive),> 100 µM (inactive),> 100 µM (inactive),> 100 µM (inactive),> 100 µM (inactive),> 100 µM (inactive),> 100 µM (inactive),> 100 µM (inactive),–,–,–,–
Clc1cccc(/N=C/C=C/Nc2cccc(Cl)c2)c1,22.9 µM (inactive),17.8 µM,16.8 µM (inactive),15.7 µM (inactive),16.6 µM (inactive),> 10 µM (inactive),14.8 µM (inactive),> 10 µM (inactive),40.4 µM (inactive),12.1 µM (inactive),20.8 µM (inactive),27.2 µM (inactive),24.2 µM (inactive),> 10 µM (inactive),16.7 µM (inactive),17.2 µM (inactive),16.9 µM (inactive),18.8 µM (inactive),16.1 µM (inactive),–
COC1=CC(=O)C2[C@H]3Cc4ccccc4[C@H]3C2(C)C1=O (stereo partly drawn),> 100 µM (inactive),94.6 µM,> 100 µM (inactive),> 100 µM (inactive),> 100 µM (inactive),> 100 µM (inactive),68.4 µM (inactive),> 100 µM (inactive),> 100 µM (inactive),> 100 µM (inactive),> 100 µM (inactive),> 100 µM (inactive),70.3 µM (inactive),55.2 µM (inactive),> 100 µM (inactive),> 100 µM (inactive),–,–,–,–
COC(=O)[C@@H]1C[C@H](c2ccc(OC)c(OC)c2)OC1=O.COC(=O)[C@H]1C[C@H](c2ccc(OC)c(OC)c2)OC1=O,> 100 µM (inactive),> 100 µM,> 100 µM (inactive),> 100 µM (inactive),> 100 µM (inactive),> 100 µM (inactive),> 100 µM (inactive),> 100 µM (inactive),> 100 µM (inactive),> 100 µM (inactive),> 100 µM (inactive),> 100 µM (inactive),> 100 µM (inactive),> 100 µM (inactive),> 100 µM (inactive),> 100 µM (inactive),–,–,–,–
COc1cc(C(=O)N[C@H]2CCc3cc(OC)c(OC)c(OC)c3-c3ccc(SC)c(=O)cc32)cc(OC)c1OC,0.00741 µM (active),0.444 µM,0.0121 µM (active),0.0223 µM (active),0.0586 µM (active),0.02 µM (active),0.00428 µM (active),0.00871 µM (active),1.42 µM (inactive),0.00962 µM (active),0.00752 µM (active),0.0115 µM (active),0.0126 µM (active),0.00705 µM (active),0.00641 µM (active),0.00515 µM (active),–,–,–,–
